Assays:
bedstraw = assay: Test B pre/postemergence bedstraw; format: in vivo, Galium aparine
How it was run: (§1)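 Response is a visual 0-to-10 score relative to untreated plants, where 0 means no effect and 10 means complete control, taken twelve to sixteen days after application. Treatments went onto soil at planting and onto foliage of 1- to 4-leaf plants, using a surfactant-containing non-phytotoxic solvent.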

blackgrass = assay: Test B pre/postemergence blackgrass; format: in vivo, Alopecurus myosuroides
How it was run: as §1

surinam grass = assay: Test B pre/postemergence surinam grass; format: in vivo, Brachiaria decumbens
How it was run: as §1

cocklebur = assay: Test B pre/postemergence cocklebur; format: in vivo, Xanthium strumarium
How it was run: as §1

corn = assay: Test B pre/postemergence corn; format: in vivo, Zea mays
How it was run: as §1

crabgrass = assay: Test B pre/postemergence crabgrass; format: in vivo, Digitaria sanguinalis
How it was run: as §1

giant foxtail = assay: Test B pre/postemergence giant foxtail; format: in vivo, Setaria faberii
How it was run: as §1

morningglory = assay: Test B pre/postemergence morningglory; format: in vivo, Ipomoea hederacea
How it was run: as §1

pigweed = assay: Test B pre/postemergence pigweed; format: in vivo, Amaranthus retroflexus
How it was run: as §1

rape = assay: Test B pre/postemergence rape; format: in vivo, Brassica napus
How it was run: as §1

soybean = assay: Test B pre/postemergence soybean; format: in vivo, Glycine max
How it was run: as §1

sugar beet = assay: Test B pre/postemergence sugar beet; format: in vivo, Beta vulgaris
How it was run: as §1

velvetleaf = assay: Test B pre/postemergence velvetleaf; format: in vivo, Abutilon theophrasti
How it was run: as §1

wheat = assay: Test B pre/postemergence wheat; format: in vivo, Triticum aestivum
How it was run: as §1

wild oat = assay: Test B pre/postemergence wild oat; format: in vivo, Avena fatua
How it was run: as §1

purple nutsedge = assay: Test B pre/postemergence purple nutsedge; format: in vivo, Cyperus rotundus
How it was run: as §1

rice = assay: Test B flood test rice; format: in vivo, Oryza sativa
How it was run: (§2)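 Flood test on plants grown to the 2-leaf stage; treated plants kept in greenhouse twelve to sixteen days, then visually rated against controls on a 0 (no effect) to 10 (complete control) scale.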

smallflower flatsedge = assay: Test B flood test smallflower flatsedge; format: in vivo, Cyperus difformis
How it was run: as §2

duck salad = assay: Test B flood test duck salad; format: in vivo, Heteranthera limosa
How it was run: as §2

bamyardgrass = assay: Test B flood test barnyardgrass; format: in vivo, Echinochloa crus-galli
How it was run: as §2

[1] = Postemergence, Rate 62 g/ha, scale 0 to 10, 0 is no effect, 10 is complete control
[2] = Postemergence, Rate 250 g/ha, scale of 0 to 10, 0 is no effect, 10 is complete control
[3] = Postemergence, Rate 500 g/ha, scale of 0 to 10 where 0 is no effect and 10 is complete control
[4] = Preemergence, Rate 500 g/ha, scale of 0 to 10 where 0 is no effect and 10 is complete control
[5] = Postemergence, Rate 125 g/ha, scale of 0 to 10 where 0 is no effect and 10 is complete control
[6] = Preemergence, Rate 62 g/ha, scale 0 to 10 (0 no effect, 10 complete control)
[7] = Preemergence, Rate 125 g/ha, scale of 0 to 10 where 0 is no effect and 10 is complete control
[8] = Rate 62 g/ha, flood test species, Pre-emergence, visual evaluation after twelve to sixteen days
[9] = Rate 125 g/ha, under heading Pre-emergence, flood test species, visual evaluation after twelve to sixteen days
[10] = Rate 250 g/ha, Pre-emergence (flood test species), scale 0 to 10, 0 is no effect, 10 is complete control
[11] = Rate 500 g/ha, Pre-emergence section of Table B, 0 to 10 scale (0 no effect, 10 complete control)

CCC(C)n1c(=O)on(C(=O)N(c2ccccc2)C(C)C)c1=O (stereo not drawn) [Compound 610]
Plant response rating, Bedstraw (bedstraw; [1]): 0 | Bedstraw plant response rating (bedstraw; [2]): 4 | Plant response rating, Bedstraw (bedstraw; [3]): 9 | Bedstraw plant response rating (bedstraw; [4]): 10 | Plant response rating, Blackgrass (blackgrass; [1]): 8 | Plant response rating, Blackgrass (blackgrass; [5]): 9 | Blackgrass plant response rating (blackgrass; [2]): 9 | Plant response rating, Blackgrass (blackgrass; [3]): 10 | Blackgrass plant response rating (blackgrass; [6]): 8 | Blackgrass plant response rating (blackgrass; [7]): 9 | Blackgrass plant response rating (0 to 10 scale) (blackgrass; Preemergence, Rate 250 g/ha): 10 | Blackgrass plant response rating (blackgrass; [4]): 10 | Plant response rating, B. signalgrass (surinam grass; [1]): 0 | Plant response rating, B. signalgrass (surinam grass; [5]): 6 | B. signalgrass plant response rating (surinam grass; [2]): 7 | Plant response rating, B. signalgrass (surinam grass; [3]): 9 | B. signalgrass plant response rating (surinam grass; [6]): 6 | B. signalgrass plant response rating (surinam grass; [7]): 8 | B. signalgrass plant response rating (0 to 10 scale, 0 is no effect, 10 is complete control) (surinam grass; Preemergence, Rate 250 g/ha): 9 | B. signalgrass plant response rating (surinam grass; [4]): 10 | Plant response rating, Cocklebur (cocklebur; [1]): 0 | Plant response rating, Cocklebur (cocklebur; [5]): 1 | Cocklebur plant response rating (cocklebur; [2]): 0 | Plant response rating, Cocklebur (cocklebur; [3]): 2 | Cocklebur plant response rating (cocklebur; [6]): 0 | Cocklebur plant response rating (cocklebur; [7]): 0 | Cocklebur plant response rating (0 to 10 scale) (cocklebur; Preemergence, Rate 250 g/ha): 0 | Plant response rating, Cocklebur (cocklebur; [4]): 3 | Plant response rating, Corn (corn; [1]): 0 | Plant response rating, Corn (corn; [5]): 0 | Corn plant response rating (corn; [2]): 2 | Plant response rating, Corn (corn; [3]): 5 | Corn plant response rating (corn; [6]): 0 | Corn plant response rating (corn; [7]): 3 | Corn plant response rating (0 to 10 scale) (corn; Preemergence, Rate 250 g/ha): 7 | Plant response rating, Corn (corn; [4]): 8 | Plant response rating, Crabgrass (crabgrass; [1]): 9 | Plant response rating, Crabgrass (crabgrass; [5]): 9 | Crabgrass plant response rating (crabgrass; [2]): 9 | Plant response rating, Crabgrass (crabgrass; [3]): 9 | Crabgrass plant response rating (crabgrass; [6]): 9 | Crabgrass plant response rating (crabgrass; [7]): 10 | Plant response rating, Crabgrass (crabgrass; [4]): 10 | Plant response rating, Giant foxtail (giant foxtail; [1]): 8 | Plant response rating, Giant foxtail (giant foxtail; [5]): 7 | Giant foxtail plant response rating (giant foxtail; [2]): 9 | Plant response rating, Giant foxtail (giant foxtail; [3]): 9 | Giant foxtail plant response rating (giant foxtail; [6]): 9 | Giant foxtail plant response rating (giant foxtail; [7]): 10 | Plant response rating, Giant foxtail (giant foxtail; [4]): 10 | Plant response rating, Morningglory (morningglory; [1]): 8 | Plant response rating, Morningglory (morningglory; [5]): 8 | Morningglory plant response rating (morningglory; [2]): 8 | Plant response rating, Morningglory (morningglory; [3]): 9 | Morningglory plant response rating (morningglory; [6]): 0 | Morningglory plant response rating (morningglory; [7]): 3 | Plant response rating, Morningglory (morningglory; [4]): 8 | Plant response rating, Redroot pigweed (pigweed; [1]): 0 | Plant response rating, Redroot pigweed (pigweed; [5]): 2 | Redroot pigweed plant response rating (pigweed; [2]): 6 | Plant response rating, Redroot pigweed (pigweed; [3]): 7 | Redroot pigweed plant response rating (pigweed; [6]): 10 | Redroot pigweed plant response rating (pigweed; [7]): 10 | Plant response rating, Redroot pigweed (pigweed; [4]): 10 | Plant response rating, Rape (rape; [1]): 0 | Plant response rating, Rape (rape; [5]): 2 | Rape plant response rating (rape; [2]): 3 | Plant response rating, Rape (rape; [3]): 5 | Rape plant response rating (rape; [6]): 3 | Rape plant response rating (rape; [7]): 8 | Plant response rating, Rape (rape; [4]): 10 | Plant response rating, Soybean (soybean; [1]): 5 | Plant response rating, Soybean (soybean; [5]): 7 | Soybean plant response rating (soybean; [2]): 8 | Plant response rating, Soybean (soybean; [3]): 9 | Soybean plant response rating (soybean; [6]): 0 | Soybean plant response rating (soybean; [7]): 6 | Plant response rating, Soybean (soybean; [4]): 8 | Plant response rating, Sugarbeets (sugar beet; [1]): 0 | Plant response rating, Sugarbeets (sugar beet; [5]): 0 | Sugarbeets plant response rating (sugar beet; [2]): 0 | Plant response rating, Sugarbeets (sugar beet; [3]): 0 | Sugarbeets plant response rating (sugar beet; [6]): 3 | Sugarbeets plant response rating (sugar beet; [7]): 7 | Plant response rating, Sugarbeets (sugar beet; [4]): 8 | Plant response rating, Velvetleaf (velvetleaf; [1]): 0 | Plant response rating, Velvetleaf (velvetleaf; [5]): 3 | Velvetleaf plant response rating (velvetleaf; [2]): 7 | Plant response rating, Velvetleaf (velvetleaf; [3]): 7 | Velvetleaf plant response rating (velvetleaf; [6]): 7 | Velvetleaf plant response rating (velvetleaf; [7]): 7 | Plant response rating, Velvetleaf (velvetleaf; [4]): 10 | Plant response rating, Wheat (wheat; [1]): 0 | Plant response rating, Wheat (wheat; [5]): 1 | Wheat plant response rating (wheat; [2]): 4 | Plant response rating, Wheat (wheat; [3]): 5 | Wheat plant response rating (wheat; [6]): 2 | Wheat plant response rating (wheat; [7]): 2 | Plant response rating, Wheat (wheat; [4]): 6 | Plant response rating, Wild oats (wild oat; [1]): 0 | Plant response rating, Wild oats (wild oat; [5]): 3 | Wild oats plant response rating (wild oat; [2]): 5 | Plant response rating, Wild oats (wild oat; [3]): 9 | Wild oats plant response rating (wild oat; [6]): 5 | Wild oats plant response rating (wild oat; [7]): 6 | Plant response rating, Wild oats (wild oat; [4]): 10 | Plant response rating, Nutsedge (purple nutsedge; [1]): 0 | Plant response rating, Nutsedge (purple nutsedge; [5]): 0 | Nutsedge plant response rating (purple nutsedge; [2]): 5 | Plant response rating, Nutsedge (purple nutsedge; [3]): 6 | Nutsedge plant response rating (purple nutsedge; [6]): 0 | Nutsedge plant response rating (purple nutsedge; [7]): 0 | Plant response rating, Nutsedge (purple nutsedge; [4]): 3 | Plant response rating, Rice (0 to 10 scale, 0 is no effect, 10 is complete control) (rice; [8]): 0 | Rice plant response rating (0 to 10 scale, 0 is no effect, 10 is complete control) (rice; [9]): 0 | Rice plant response rating (rice; [10]): 2 | Rice plant response rating (rice; [11]): 8 | Plant response rating, S. Flatsedge (0 to 10 scale, 0 is no effect, 10 is complete control) (smallflower flatsedge; [8]): 0 | S. Flatsedge plant response rating (0 to 10 scale, 0 is no effect, 10 is complete control) (smallflower flatsedge; [9]): 0 | S. Flatsedge plant response rating (smallflower flatsedge; [10]): 0 | S. Flatsedge plant response rating (smallflower flatsedge; [11]): 8 | Plant response rating, Ducksalad (0 to 10 scale, 0 is no effect, 10 is complete control) (duck salad; [8]): 0 | Ducksalad plant response rating (0 to 10 scale, 0 is no effect, 10 is complete control) (duck salad; [9]): 0 | Ducksalad plant response rating (duck salad; [10]): 0 | Ducksalad plant response rating (duck salad; [11]): 7 | Plant response rating, Barnyardgrass (0 to 10 scale, 0 is no effect, 10 is complete control) (bamyardgrass; [8]): 0 | Barnyardgrass plant response rating (0 to 10 scale, 0 is no effect, 10 is complete control) (bamyardgrass; [9]): 0 | Barnyardgrass plant response rating (bamyardgrass; [10]): 0 | Barnyardgrass plant response rating (bamyardgrass; [11]): 8

— US6737383B1, “Herbicidal oxadiazolidines” (priority 1999, dated 2004)
